Experimental data published in US8940896B2, “Tetra-cyclic carboline derivatives useful in the inhibition of angiogenesis” (PTC Therapeutics, Inc., priority 2004, dated 2015).

Tested on: VEGF
Assay: Hypoxia-inducible endogenous VEGF expression, VEGF ELISA assay
Type: cell-based
Conditions: HeLa cells, hypoxic conditions (1% O2, 5% CO2), VEGF in conditioned media
Experimental: The ability of the compounds of the invention to modulate hypoxia-inducible endogenous VEGF expression may be analyzed as follows. VEGF protein levels may be monitored by an ELISA assay (R&D Systems). Briefly, HeLa cells may be cultured for 24-48 hours under hypoxic conditions (1% O2, 5% CO2, balanced with nitrogen) in the presence or absence of a compound of the invention. The conditioned media may then be assayed by ELISA, and the concentration of VEGF calculated from the standard ELISA curve of each assay.
A dose-response analysis may be performed using the ELISA assay and conditions described above. The conditions for the dose-response ELISA are analogous to those described above. A series of, e.g., seven different concentrations may be analyzed. In parallel, a dose-response cytotoxicity assay may be performed using CellTiter Glo (Promega) under the same conditions as the ELISA to ensure that the inhibition of VEGF expression was not due to the cytotoxicity. Dose-response curves may be plotted using percentage inhibition versus concentration of the compound, and EC50 and CC50 values may be generated for each compound with the maximal inhibition set as 100% and the minimal inhibition as 0%.

SMILES	EC50 (Homo sapiens, HeLa) [nM]	EC50 [nM]
COc1ccccc1C1c2[nH]c3ccccc3c2CC2C(=O)N(C(C)C)C(=S)N21 (centres unmarked) [Compound 86]	> 1000	–
COc1ccccc1C1c2[nH]c3ccccc3c2CC2C(=O)N(C3CCCCC3)C(=S)N21 (centres unmarked) [Compound 87]	> 1000	–
COc1ccccc1C1c2[nH]c3ccccc3c2CC2C(=O)N(c3ccccc3C)C(=S)N21 (centres unmarked) [Compound 89]	> 1000	–
COc1ccccc1C1c2[nH]c3ccccc3c2CC2C(=O)N(Cc3ccccc3)C(=S)N21 (centres unmarked) [Compound 93]	> 1000	–
COc1ccccc1C1c2[nH]c3ccccc3c2CC2C(=O)N(CCc3ccccc3)C(=S)N21 (centres unmarked) [Compound 94]	> 1000	–
CC(C)c1ccc(C2c3[nH]c4ccc(Br)cc4c3CC3C(=O)N(C4CCCCC4)C(=S)N32)cc1 (centres unmarked) [Compound 97]	< 8	–
O=C1C2Cc3c([nH]c4ccc(Br)cc34)C(c3ccc(OCCN4CCOCC4)cc3)N2C(=S)N1C1CCCC1 (centres unmarked) [Compound 104]	< 8	–
COCCCN1C(=O)C2Cc3c([nH]c4ccc(Br)cc34)C(c3ccc(OCCN4CCOCC4)cc3)N2C1=S (centres unmarked) [Compound 105]	8 to 40	–
O=C1C2Cc3c([nH]c4ccc(Br)cc34)C(c3ccc(OCCN4CCOCC4)cc3)N2C(=S)N1CC1CCCO1 (centres unmarked) [Compound 106]	40 to 200	–
COCCOc1ccc(C2c3[nH]c4ccc(Cl)cc4c3CC3C(=O)N(C4CCCC4)C(=S)N32)cc1 (centres unmarked) [Compound 109]	8 to 40	–
COCCCN1C(=O)C2Cc3c([nH]c4ccc(Cl)cc34)C(c3ccc(OCCOC)cc3)N2C1=S (centres unmarked) [Compound 110]	8 to 40	–
O=C1C2Cc3c([nH]c4ccc(Cl)cc34)C(c3ccc(OCCN4CCOCC4)cc3)N2C(=S)N1C1CCCCC1 (centres unmarked) [Compound 113]	< 8	–
CN(C)CCCOc1ccc(C2c3[nH]c4ccc(Cl)cc4c3CC3C(=O)N(C4CCCCC4)C(=S)N32)cc1 (centres unmarked) [Compound 114]	40 to 200	–
O=C1C2Cc3c([nH]c4ccc(Br)cc34)C(c3ccc(OCCN4CCOCC4)cc3)N2C(=S)N1C1CCCCC1 (centres unmarked) [Compound 115]	< 8	–
COCCOc1ccc(C2c3[nH]c4ccc(Cl)cc4c3CC3C(=O)N(C4CCCCC4)C(=S)N32)cc1 (centres unmarked) [Compound 116]	< 8	–
CC(C)N1C(=O)C2Cc3c([nH]c4ccc(Br)cc34)C(c3ccc(N4CCOCC4)cc3)N2C1=O (centres unmarked) [Compound 118]	40 to 200	–
CC(C)N1C(=O)C2Cc3c([nH]c4ccc(Br)cc34)C(c3ccc(-c4cncnc4)cc3)N2C1=O (centres unmarked) [Compound 121]	40 to 200	–
CC(C)N1C(=O)C2Cc3c([nH]c4ccc(Cl)cc34)C(c3ccc(N4CCOCC4)cc3)N2C1=O (centres unmarked) [Compound 122]	200 to 1000	–
CC(C)N1C(=O)C2Cc3c([nH]c4ccc(Cl)cc34)C(c3ccc(-n4ccnc4)cc3)N2C1=O (centres unmarked) [Compound 123]	200 to 1000	–
CC(C)N1C(=O)C2Cc3c([nH]c4ccc(Cl)cc34)C(c3ccc(N4CCN(C)CC4)cc3)N2C1=O (centres unmarked) [Compound 124]	40 to 200	–
CC(C)N1C(=O)C2Cc3c([nH]c4ccc(Cl)cc34)C(c3ccc(-c4ccncc4)cc3)N2C1=O (centres unmarked) [Compound 125]	200 to 1000	–
CC(C)N1C(=O)C2Cc3c([nH]c4ccc(Cl)cc34)C(c3ccc(-c4cncnc4)cc3)N2C1=O (centres unmarked) [Compound 126]	200 to 1000	–
CC(C)N1C(=O)C2Cc3c([nH]c4ccc(Br)cc34)C(c3ccc(N4CCN(C)CC4)cc3)N2C1=S (centres unmarked) [Compound 129]	8 to 40	–
CC(C)N1C(=O)C2Cc3c([nH]c4ccc(Cl)cc34)C(c3ccc(-n4ccnc4)cc3)N2C1=S (centres unmarked) [Compound 132]	40 to 200	–
CC(C)N1C(=O)C2Cc3c([nH]c4ccc(Cl)cc34)C(c3ccc(N4CCN(C)CC4)cc3)N2C1=S (centres unmarked) [Compound 133]	40 to 200	–
CC(C)N1C(=O)C2Cc3c([nH]c4ccc(Cl)cc34)C(c3ccc(-c4cncnc4)cc3)N2C1=S (centres unmarked) [Compound 135]	40 to 200	–

Second part, the molecule after the results:

EC50 (Homo sapiens, HeLa) [nM]	EC50 [nM]	SMILES
> 1000	–	COc1ccccc1C1c2[nH]c3ccccc3c2CC2C(=O)N(c3ccccc3)C(=S)N21 (centres unmarked) [Compound 88]
> 1000	–	COc1ccccc1C1c2[nH]c3ccccc3c2CC2C(=O)N(c3cccc(C)c3)C(=S)N21 (centres unmarked) [Compound 90]
> 1000	–	COc1ccccc1C1c2[nH]c3ccccc3c2CC2C(=O)N(c3ccc(C)cc3)C(=S)N21 (centres unmarked) [Compound 91]
> 1000	–	COc1ccccc1C1c2[nH]c3ccccc3c2CC2C(=O)N(c3cccc(F)c3)C(=S)N21 (centres unmarked) [Compound 92]
< 8	–	CCC(C)N1C(=O)C2Cc3c([nH]c4ccc(Br)cc34)C(c3ccc(C(C)C)cc3)N2C1=S (centres unmarked) [Compound 95]
< 8	–	Cc1ccc(N2C(=O)C3Cc4c([nH]c5ccc(Br)cc45)C(c4ccc(C(C)C)cc4)N3C2=S)cc1 (centres unmarked) [Compound 96]
< 8	–	CCCCCN1C(=O)C2Cc3c([nH]c4ccc(Br)cc34)C(c3ccc(C(C)C)cc3)N2C1=S (centres unmarked) [Compound 98]
< 8	–	COc1ccc(C2c3[nH]c4ccc(Br)cc4c3CC3C(=O)N(c4cccnc4)C(=S)N32)cc1 (centres unmarked) [Compound 99]
8 to 40	–	CN1C(=O)C2Cc3c([nH]c4ccc(Br)cc34)C(c3ccc(OCCN4CCOCC4)cc3)N2C1=S (centres unmarked) [Compound 100]
< 8	–	CCN1C(=O)C2Cc3c([nH]c4ccc(Br)cc34)C(c3ccc(OCCN4CCOCC4)cc3)N2C1=S (centres unmarked) [Compound 101]
8 to 40	–	CCCN1C(=O)C2Cc3c([nH]c4ccc(Br)cc34)C(c3ccc(OCCN4CCOCC4)cc3)N2C1=S (centres unmarked) [Compound 102]
< 8	–	CC(C)N1C(=O)C2Cc3c([nH]c4ccc(Br)cc34)C(c3ccc(OCCN4CCOCC4)cc3)N2C1=S (centres unmarked) [Compound 103]
< 8	–	COCCOc1ccc(C2c3[nH]c4ccc(Cl)cc4c3CC3C(=O)N(C)C(=S)N32)cc1 (centres unmarked) [Compound 107]
8 to 40	–	COCCOc1ccc(C2c3[nH]c4ccc(Cl)cc4c3CC3C(=O)N(C(C)C)C(=S)N32)cc1 (centres unmarked) [Compound 108]
< 8	–	COCCOc1ccc(C2c3[nH]c4ccc(Br)cc4c3CC3C(=O)N(C4CCCCC4)C(=S)N32)cc1 (centres unmarked) [Compound 111]
< 8	–	CN(C)CCCOc1ccc(C2c3[nH]c4ccc(Br)cc4c3CC3C(=O)N(C4CCCCC4)C(=S)N32)cc1 (centres unmarked) [Compound 112]
–	< 8	COCCOc1ccc(C2c3[nH]c4ccc(Br)cc4c3CC3C(=O)N(C4CCCCC4)C(=S)N32)cc1 (centres unmarked) [Compound 117]
200 to 1000	–	CC(C)N1C(=O)C2Cc3c([nH]c4ccc(Br)cc34)C(c3ccc(-c4ccncc4)cc3)N2C1=O (centres unmarked) [Compound 120]
< 8	–	CC(C)N1C(=O)C2Cc3c([nH]c4ccc(Br)cc34)C(c3ccc(N4CCOCC4)cc3)N2C1=S (centres unmarked) [Compound 127]
8 to 40	–	CC(C)N1C(=O)C2Cc3c([nH]c4ccc(Br)cc34)C(c3ccc(-n4ccnc4)cc3)N2C1=S (centres unmarked) [Compound 128]

EC50 (Homo sapiens, HeLa) [nM]	EC50 [nM]	SMILES
40 to 200	–	CC(C)N1C(=O)C2Cc3c([nH]c4ccc(Br)cc34)C(c3ccc(-c4ccncc4)cc3)N2C1=S (centres unmarked) [Compound 130]
8 to 40	–	CC(C)N1C(=O)C2Cc3c([nH]c4ccc(Br)cc34)C(c3ccc(-c4cncnc4)cc3)N2C1=S (centres unmarked) [Compound 131]
8 to 40	–	CC(C)N1C(=O)C2Cc3c([nH]c4ccc(Cl)cc34)C(c3ccc(-c4ccncc4)cc3)N2C1=S (centres unmarked) [Compound 134]
40 to 200	–	COC(=O)CN1C(=O)C2Cc3c([nH]c4ccc(Br)cc34)C(c3ccc(OC)cc3)N2C1=S (centres unmarked) [Compound 136]
8 to 40	–	CCOC(=O)CN1C(=O)C2Cc3c([nH]c4ccc(Br)cc34)C(c3ccc(OC)cc3)N2C1=S (centres unmarked) [Compound 137]
< 8	–	COc1ccc(C2c3[nH]c4ccc(Br)cc4c3CC3C(=O)N(c4ccc(Cl)cc4)C(=S)N32)cc1 (centres unmarked) [Compound 138]
8 to 40	–	COC(=O)c1ccc(N2C(=O)C3Cc4c([nH]c5ccc(Br)cc45)C(c4ccc(OC)cc4)N3C2=S)cc1 (centres unmarked) [Compound 139]
< 8	–	COC(=O)c1cccc(N2C(=O)C3Cc4c([nH]c5ccc(Br)cc45)C(c4ccc(OC)cc4)N3C2=S)c1 (centres unmarked) [Compound 140]
< 8	–	COc1ccc(C2c3[nH]c4ccc(Br)cc4c3CC3C(=O)N(c4ccc(OC(C)=O)cc4)C(=S)N32)cc1 (centres unmarked) [Compound 141]
< 8	–	COc1ccc(C2c3[nH]c4ccc(Br)cc4c3CC3C(=O)N(c4cccc(OC)c4)C(=S)N32)cc1 (centres unmarked) [Compound 142]
8 to 40	–	COc1ccc(C2c3[nH]c4ccc(Br)cc4c3CC3C(=O)N(CC4CCCO4)C(=S)N32)cc1 (centres unmarked) [Compound 143]
8 to 40	–	CCOC(=O)C(C)N1C(=O)C2Cc3c([nH]c4ccc(Br)cc34)C(c3ccc(OC)cc3)N2C1=S (centres unmarked) [Compound 144]
< 8	–	CCOC(=O)CC(C)N1C(=O)C2Cc3c([nH]c4ccc(Br)cc34)C(c3ccc(OC)cc3)N2C1=S (centres unmarked) [Compound 145]
< 8	–	COc1ccc(C2c3[nH]c4ccc(Br)cc4c3CC3C(=O)N(c4cccc(C#N)c4)C(=S)N32)cc1 (centres unmarked) [Compound 146]
40 to 200	–	COC(=O)N1C(=O)C2Cc3c([nH]c4ccc(Br)cc34)C(c3ccc(OC)cc3)N2C1=S (centres unmarked) [Compound 147]
200 to 1000	–	COCCOc1ccc([C@@H]2c3[nH]c4ccc(Br)cc4c3C[C@H]3C(=O)N(C4CCCCC4)C(=S)N23)cc1 [Compound 148]
< 8	–	O=C1C2Cc3c([nH]c4ccc(Br)cc34)C(c3ccc(OCCCn4ccnn4)cc3)N2C(=S)N1c1ccc(Cl)cc1 (centres unmarked) [Compound 149]
< 8	–	CC(C)N1C(=O)C2Cc3c([nH]c4ccc(Br)cc34)C(c3ccc(OCCCN4CCCC4)cc3)N2C1=S (centres unmarked) [Compound 150]
< 8	–	CC(C)N1C(=O)C2Cc3c([nH]c4ccc(Br)cc34)C(c3ccc(OCCCN4CCCCC4)cc3)N2C1=S (centres unmarked) [Compound 151]
